Activity calls are given as the source filed them. No cut-off for these calls is given here.
How the values were obtained:
[1] = target: T1, 5-hydroxytryptamine receptor 2C (Homo sapiens, UniProt P28335); assay: Partial agonist activity at human 5-HT2CR expressed in human Flp-In-T-REx-293 cells assessed as increase in calcium flux incubated for 60 mins followed by incubation for 30 mins in dark by Flou-4 dye based FLIPR assay; type: functional, cell-based
T1 sequence (P28335 whole entry): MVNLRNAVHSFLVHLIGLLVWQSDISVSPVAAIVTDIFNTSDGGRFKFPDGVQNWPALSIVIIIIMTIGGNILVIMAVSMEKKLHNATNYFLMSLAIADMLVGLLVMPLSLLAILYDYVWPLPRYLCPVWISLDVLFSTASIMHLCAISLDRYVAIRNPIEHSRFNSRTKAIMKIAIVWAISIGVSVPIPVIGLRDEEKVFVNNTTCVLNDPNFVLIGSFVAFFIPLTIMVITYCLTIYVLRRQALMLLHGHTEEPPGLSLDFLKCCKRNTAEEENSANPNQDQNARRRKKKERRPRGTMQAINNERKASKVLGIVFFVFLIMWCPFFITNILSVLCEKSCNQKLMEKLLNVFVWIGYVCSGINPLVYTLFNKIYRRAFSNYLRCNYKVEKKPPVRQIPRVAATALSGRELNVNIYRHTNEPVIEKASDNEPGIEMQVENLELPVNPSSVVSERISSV

[2] = target: T2, 5-hydroxytryptamine receptor 2C (Homo sapiens) (UniProt P28335); assay: Partial agonist activity at human 5-HT2CR expressed in human Flp-In-T-REx-293 cells assessed as increase in calcium flux by measuring maximal efficacy incubated for 60 mins followed by incubation for 30 mins in dark by Flou-4 dye based FLIPR assay relative to control; type: functional, cell-based; settings: time 90.0 min
T2 sequence (whole entry): T1 sequence (P28335 whole entry)

[3] = target: T2, 5-hydroxytryptamine receptor 2C (Homo sapiens); assay: Agonist activity at human 5-HT2CR expressed in human Flp-In-T-REx-293 cells assessed as increase in calcium flux by measuring maximal efficacy incubated for 60 mins followed by incubation for 30 mins in dark by Flou-4 dye based FLIPR assay; type: functional, cell-based; settings: filed as agonist, time 90.0 min
[4] = target: T1, 5-hydroxytryptamine receptor 2C; assay: Agonist activity at human 5-HT2CR expressed in human Flp-In-T-REx-293 cells assessed as increase in calcium flux incubated for 60 mins followed by incubation for 30 mins in dark by Flou-4 dye based FLIPR assay; type: functional, cell-based
[5] = target: 5-hydroxytryptamine receptor 2A (Homo sapiens) (UniProt P28223); assay: Partial agonist activity at human 5-HT2AR expressed in human Flp-In-T-REx-293 cells assessed as increase in calcium flux upto 10 uM incubated for 60 mins followed by incubation for 30 mins in dark by Flou-4 dye based FLIPR assay; type: functional, cell-based; settings: time 90.0 min
5-hydroxytryptamine receptor 2A (Homo sapiens), sequence (P28223 whole entry): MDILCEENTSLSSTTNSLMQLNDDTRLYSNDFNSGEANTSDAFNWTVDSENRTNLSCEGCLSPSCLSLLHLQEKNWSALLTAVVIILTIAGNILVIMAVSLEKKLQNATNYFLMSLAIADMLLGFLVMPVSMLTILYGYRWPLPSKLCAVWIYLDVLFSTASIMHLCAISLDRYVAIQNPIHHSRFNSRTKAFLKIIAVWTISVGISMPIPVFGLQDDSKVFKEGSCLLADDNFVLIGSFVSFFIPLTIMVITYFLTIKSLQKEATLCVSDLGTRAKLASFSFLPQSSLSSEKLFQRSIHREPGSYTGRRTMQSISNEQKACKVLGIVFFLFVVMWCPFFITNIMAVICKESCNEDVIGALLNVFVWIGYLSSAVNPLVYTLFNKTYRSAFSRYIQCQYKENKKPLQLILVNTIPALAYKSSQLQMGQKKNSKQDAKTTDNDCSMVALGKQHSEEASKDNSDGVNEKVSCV

[6] = target: T3, 5-hydroxytryptamine receptor 2B (Homo sapiens, UniProt P41595); assay: Partial agonist activity at human 5-HT2BR expressed in human Flp-In-T-REx-293 cells assessed as increase in calcium flux incubated for 60 mins followed by incubation for 30 mins in dark by Flou-4 dye based FLIPR assay; type: functional, cell-based
T3 sequence (P41595 whole entry): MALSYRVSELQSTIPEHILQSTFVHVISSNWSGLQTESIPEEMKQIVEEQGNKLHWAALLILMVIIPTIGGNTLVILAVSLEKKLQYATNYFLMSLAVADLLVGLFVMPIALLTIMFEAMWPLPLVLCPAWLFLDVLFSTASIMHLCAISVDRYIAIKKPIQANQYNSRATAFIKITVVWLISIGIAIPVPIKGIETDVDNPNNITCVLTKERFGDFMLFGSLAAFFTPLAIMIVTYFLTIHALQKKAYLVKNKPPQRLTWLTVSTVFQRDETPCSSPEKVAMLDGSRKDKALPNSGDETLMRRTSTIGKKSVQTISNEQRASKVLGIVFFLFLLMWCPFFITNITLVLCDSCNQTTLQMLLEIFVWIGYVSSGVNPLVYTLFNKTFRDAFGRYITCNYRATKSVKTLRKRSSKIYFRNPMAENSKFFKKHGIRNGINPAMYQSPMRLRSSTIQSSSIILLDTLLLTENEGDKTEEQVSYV

[7] = target: T3, 5-hydroxytryptamine receptor 2B; assay: Partial agonist activity at human 5-HT2BR expressed in human Flp-In-T-REx-293 cells assessed as increase in calcium flux by measuring maximal efficacy incubated for 60 mins followed by incubation for 30 mins in dark by Flou-4 dye based FLIPR assay relative to control; type: functional, cell-based; settings: time 90.0 min
[8] = target: T2, 5-hydroxytryptamine receptor 2C (Homo sapiens); assay: Partial agonist activity at human 5-HT2CR expressed in human Flp-In-T-REx-293 cells assessed as increase in calcium flux upto 10 uM incubated for 60 mins followed by incubation for 30 mins in dark by Flou-4 dye based FLIPR assay; type: functional, cell-based; settings: time 90.0 min
hERG (KCNH2) [9] = target: T4, hERG (KCNH2) (Homo sapiens, UniProt Q12809); assay: Inhibition of hERG at 10 uM relative to control; type: toxicity
T4 sequence (Q12809 whole entry): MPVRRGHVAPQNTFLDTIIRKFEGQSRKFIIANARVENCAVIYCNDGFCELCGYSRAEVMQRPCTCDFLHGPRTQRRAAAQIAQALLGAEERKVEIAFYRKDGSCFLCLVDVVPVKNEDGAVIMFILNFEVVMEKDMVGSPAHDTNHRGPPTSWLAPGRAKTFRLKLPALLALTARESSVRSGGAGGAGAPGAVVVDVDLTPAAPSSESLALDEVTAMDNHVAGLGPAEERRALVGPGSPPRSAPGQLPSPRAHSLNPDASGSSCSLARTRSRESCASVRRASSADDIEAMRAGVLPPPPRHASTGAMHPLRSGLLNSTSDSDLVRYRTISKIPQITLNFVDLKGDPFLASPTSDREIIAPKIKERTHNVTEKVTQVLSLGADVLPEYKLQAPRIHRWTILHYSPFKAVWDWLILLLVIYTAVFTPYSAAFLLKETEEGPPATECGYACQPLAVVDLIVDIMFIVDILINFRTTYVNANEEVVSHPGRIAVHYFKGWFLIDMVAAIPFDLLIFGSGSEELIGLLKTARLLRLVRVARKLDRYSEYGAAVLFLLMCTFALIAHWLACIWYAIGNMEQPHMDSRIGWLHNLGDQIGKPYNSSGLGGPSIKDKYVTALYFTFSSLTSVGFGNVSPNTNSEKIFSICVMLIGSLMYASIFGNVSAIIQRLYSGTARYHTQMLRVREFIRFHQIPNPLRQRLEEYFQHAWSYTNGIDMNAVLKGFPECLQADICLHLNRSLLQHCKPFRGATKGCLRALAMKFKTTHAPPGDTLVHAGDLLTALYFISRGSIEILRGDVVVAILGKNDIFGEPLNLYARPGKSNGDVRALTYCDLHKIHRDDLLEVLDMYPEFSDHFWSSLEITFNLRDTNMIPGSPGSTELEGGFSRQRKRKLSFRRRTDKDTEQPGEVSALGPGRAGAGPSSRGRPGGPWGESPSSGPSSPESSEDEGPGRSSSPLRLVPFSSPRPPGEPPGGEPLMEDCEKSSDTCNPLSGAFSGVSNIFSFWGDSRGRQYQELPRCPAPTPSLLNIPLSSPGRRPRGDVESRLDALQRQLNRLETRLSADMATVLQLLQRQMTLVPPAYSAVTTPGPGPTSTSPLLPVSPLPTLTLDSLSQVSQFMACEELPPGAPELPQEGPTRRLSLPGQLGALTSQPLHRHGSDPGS

[10] = target: T3, 5-hydroxytryptamine receptor 2B; assay: Partial agonist activity at human 5-HT2BR expressed in human Flp-In-T-REx-293 cells assessed as increase in calcium flux upto 10 uM incubated for 60 mins followed by incubation for 30 mins in dark by Flou-4 dye based FLIPR assay; type: functional, cell-based; settings: time 90.0 min
[11] = target: T2, 5-hydroxytryptamine receptor 2C (Homo sapiens); assay: Partial agonist activity at Rluc-tagged 5-HT2CR (unknown origin) transfected in HEK293T cells assessed as beta-arrestin-2 recruitment incubated for 10 mins by coelenterazine 400a based BRET assay; type: functional, cell-based
hERG (KCNH2) [12] = target: T4, hERG (KCNH2); assay: Inhibition of hERG expressed in CHO cells at 10 uM by automated patch clamp method relative to control; type: toxicity, cell-based; settings: CHO cells that express hERG

| Compound | EC50 ([1]; read-out: EC50) | Emax ([2]; filed as partial agonist) | Activity [8] | also measured |
| --- | --- | --- | --- | --- |
| Cc1cccc2c1C=CC1(CCNCC1)O2 | 170 nM | 55.2% |  |  |
| Brc1ccc2c(c1)OC1(C=C2)CCNCC1 | 488 nM | 72.6% |  |  |
| Fc1cccc2c1OC1(C=C2)CCNCC1 | 929 nM | 64.4% |  |  |
| Fc1ccc2c(c1)C=CC1(CCNCC1)O2 | 3060 nM | 49.5% |  |  |
| Fc1ccc2c(c1)OC1(C=C2)CCNCC1 |  |  |  | Emax [3]: 91.4%; EC50 [4]: 158 nM |
| Clc1cccc2c1OC1(C=C2)CCNCC1 | 150 nM | 75.7% |  | Activity [5]: inactive; EC50 [6]: 470 nM; Emax [7]: 30.9% |
| Clc1ccc2c(c1)OC1(C=C2)CNC1 | 2490 nM | 58.5% |  |  |
| CC1CNCCC12C=Cc1ccc(Cl)cc1O2 (stereo in doubt; 29b) [listing 1 of 2 here] | 2650 nM |  |  |  |
| Clc1ccc2c(c1)OC1(C=C2)CCNC1 (stereo not given) | 330 nM | 44.7% |  |  |
| Cc1ccc2c(c1)OC1(C=C2)CCNCC1 |  |  | inactive |  |
| C[C@@H]1CC2(C=Cc3ccc(Cl)cc3O2)CCN1 (stereo not given in full) | 950 nM | 82.5% | inactive |  |
| CC1CNCCC12C=Cc1ccc(Cl)cc1O2 (stereo in doubt; 29b) [listing 2 of 2 here] |  | 73.7% |  |  |
| OC1CC2(CCNCC2)Oc2ccccc21 (stereo not given) |  |  | inactive |  |
| Clc1ccc2c(c1)OC1(C=C2)CC2CCC(C1)N2 (stereo not given) |  |  | inactive |  |
| COc1ccc2c(c1)C=CC1(CCNCC1)O2 |  |  | inactive |  |
| NC1CCC2(C=Cc3ccc(Cl)cc3O2)CC1 (stereo not given) | 3380 nM | 69% |  |  |
| COc1ccc2c3c1-c1ccccc1CC3NCC2 (stereo not given) |  |  |  | Activity [5]: inactive; EC50 ([1]; read-out: pEC50 (converted)): 100 nM; inhibition at 10 µM (hERG (KCNH2) [9]): 92.7%; Activity [10]: inactive |
| Clc1cccc2c1C=CC1(CCNCC1)O2 |  |  |  | Activity [5]: inactive; EC50 [6]: 68.4 nM; Emax [7]: 34.1%; Emax [3]: 81.9%; EC50 [4]: 31 nM |

| Compound | EC50 ([1]; read-out: EC50) | Emax ([2]; filed as partial agonist) | Activity [8] | also measured |
| --- | --- | --- | --- | --- |
| Clc1ccc2c(c1)OC1(C=C2)CCCNC1 (stereo not given) |  |  | inactive |  |
| Clc1ccc2c(c1Cl)OC1(C=C2)CCNCC1 |  |  | inactive |  |
| Clc1ccc2c(c1)OC1(C=C2)CCCNCC1 (stereo not given) | 3110 nM |  |  | Emax [2]: 26.2% |
| COc1ccc2c(c1)OC1(C=C2)CCNCC1 | 3740 nM | 50.4% |  |  |
| O=C1CC2(CCNCC2)Oc2ccccc21 |  |  | inactive |  |
| Cc1cccc2c1OC1(C=C2)CCNCC1 | 2060 nM |  |  | Emax [2]: 22.4% |
| Clc1ccc2c(c1)OC1(C=C2)CCNCC1 | 121 nM | 71.1% |  | Activity [5]: inactive; Activity [11]: inactive; inhibition at 10 µM (hERG (KCNH2) [12]): 43.9% |
| CC1CNCCC12C=Cc1ccc(Cl)cc1O2 (stereo in doubt; 29a) [listing 1 of 2 here] | 476 nM |  |  |  |
| C[C@H]1CC2(C=Cc3ccc(Cl)cc3O2)CCN1 (stereo in doubt; 31a) |  |  | inactive |  |
| Clc1cc(Cl)c2c(c1)OC1(C=C2)CCNCC1 |  |  | inactive |  |
| COc1cccc2c1C=CC1(CCNCC1)O2 |  |  | inactive |  |
| C[C@H]1CC2(C=Cc3ccc(Cl)cc3O2)CCN1 (stereo in doubt; 31b) |  |  | inactive |  |
| CC1CNCCC12C=Cc1ccc(Cl)cc1O2 (stereo in doubt; 29a) [listing 2 of 2 here] |  | 80% |  |  |
| C1=CC2(CCNCC2)Oc2ccccc21 | 147 nM | 85.9% |  | Activity [5]: inactive; EC50 [6]: 897 nM; Emax [7]: 19.4%; Activity [11]: inactive |
| c1ccc2c(c1)CCC1(CCNCC1)O2 |  |  | inactive |  |
| Clc1ccc2c(c1)C=CC1(CCNCC1)O2 | 215 nM |  |  | EC50 ([1]; read-out: pEC50 (converted)): 2000 nM; Emax [2]: 36.3% |
| Cc1ccc2c(c1)C=CC1(CCNCC1)O2 |  |  | inactive |  |
